From ChEMBL document CHEMBL2073911, “Sensitivity of bile acid transport by organic anion-transporting polypeptides to intracellular pH” (Biochim Biophys Acta, 2003)

Target: T1, Solute carrier organic anion transporter family member 1A1 (Rattus norvegicus, UniProt P46720)
T1 sequence (P46720 whole entry): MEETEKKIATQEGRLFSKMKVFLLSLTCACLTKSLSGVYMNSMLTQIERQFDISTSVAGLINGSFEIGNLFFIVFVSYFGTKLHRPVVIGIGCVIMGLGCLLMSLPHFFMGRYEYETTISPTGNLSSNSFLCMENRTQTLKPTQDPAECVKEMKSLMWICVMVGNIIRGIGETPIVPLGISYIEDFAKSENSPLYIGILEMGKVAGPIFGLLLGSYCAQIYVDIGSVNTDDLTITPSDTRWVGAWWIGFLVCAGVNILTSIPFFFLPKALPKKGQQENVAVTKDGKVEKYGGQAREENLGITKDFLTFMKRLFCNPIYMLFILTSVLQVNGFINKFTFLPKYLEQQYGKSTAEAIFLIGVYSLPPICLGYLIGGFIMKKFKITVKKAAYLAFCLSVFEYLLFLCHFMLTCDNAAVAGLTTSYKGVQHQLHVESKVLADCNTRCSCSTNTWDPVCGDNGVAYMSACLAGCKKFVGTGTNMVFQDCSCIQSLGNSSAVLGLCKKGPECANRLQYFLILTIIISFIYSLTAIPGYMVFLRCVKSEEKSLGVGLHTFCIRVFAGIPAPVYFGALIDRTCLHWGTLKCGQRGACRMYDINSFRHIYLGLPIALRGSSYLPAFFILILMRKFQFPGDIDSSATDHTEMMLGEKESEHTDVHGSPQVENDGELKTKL
Assay: TP_TRANSPORTER: uptake in Oatp1-expressing CHO-03 cell
Type: functional, cell-based
Conditions: hamster

For `C[C@H](CCC(=O)NCC(=O)O)[C@H]1CC[C@H]2[C@@H]3[C@H](O)C[C@@H]4C[C@H](O)CC[C@]4(C)[C@H]3C[C@H](O)[C@]12C` [GLYCOCHOLIC ACID], the Activity was “substrate [+]”.
